Laboratory results taken from patent publication US5624923A, “Tricyclic diazepine vasopressin antagonists and oxytocin antagonists” (priority 1995, dated 1997).
pIC50: −log10 of the molar value.

Legend:
[1] = target: T1, Rat Kidney Medullary V2 Receptors (Rattus norvegicus, UniProt Q00788); assay: Binding Assay to Rat Kidney Medullary V2 Receptors; conditions: for pIC50: rat kidney medulla membranes, read-out: V2 IC50
T1 construct: Medullary tissues from rat kidneys are dissected out; from tissue; host or cells: rat kidney medulla membranes
T1 sequence (Q00788 whole entry): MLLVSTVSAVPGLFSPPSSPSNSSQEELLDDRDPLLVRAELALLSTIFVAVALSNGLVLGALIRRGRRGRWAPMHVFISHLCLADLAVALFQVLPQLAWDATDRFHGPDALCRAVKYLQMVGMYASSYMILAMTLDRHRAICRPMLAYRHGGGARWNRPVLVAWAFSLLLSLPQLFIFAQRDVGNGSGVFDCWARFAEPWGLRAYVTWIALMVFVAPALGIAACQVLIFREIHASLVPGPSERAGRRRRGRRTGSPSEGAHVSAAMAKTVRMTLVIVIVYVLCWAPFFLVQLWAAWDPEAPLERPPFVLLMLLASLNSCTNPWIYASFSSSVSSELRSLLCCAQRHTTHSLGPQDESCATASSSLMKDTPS
Experimental: Binding Assay to Rat Kidney Medullary V2 Receptors
Medullary tissues from rat kidneys are dissected out, cut into small pieces and soaked in a […] sodium chloride solution containing 1.0 mM EDTA with many changes of the liquid phase, until the solution is clear of blood. The tissue is homogenized in a 0.25M sucrose solution containing 1.0 mM EDTA and 0.1 mM PMSF using a Potter-Elvehjem homogenizer with a teflon pestle. The homogenate is filtered through several layers (4 layers) of cheese cloth. The filtrate is rehomogenized using a dounce homogenizer, with a tight fitting pestle. The final homogenate is centrifuged at 1500× g for 15 min. The nuclear pellet is discarded and the supernatant fluid recentrifuged at 40,000× g for 30 min. The resulting pellet formed contains a dark inner part with the exterior., slightly pink. The pink outer part is suspended in a small amount of 50.0 mM Tris. HCl buffer, pH 7.4. The protein content is determined by the Lowry's method (Lowry et al., J. Biol. Chem., 1953). The membrane suspension is stored at -70° C. in 50.0 mM Tris HCl, containing 0.2% inactivated BSA and 0.1 mM PMSF in aliquots of 1.0 ml containing 10.0 mg protein per ml of suspension until use in subsequent binding experiments.
(§1) The plates are left undisturbed on the bench top for 120 min to reach equilibrium. Non-specific binding is assessed in the presence of 1.0 μM of unlabeled ligand, added in 20 μl volume. For test compounds, these are solubilized in 50% dimethylsulfoxide (DMSO) and added in 20.0 μl volume to a final incubation volume of 200 μl. Upon completion of binding, the content of each well is filtered off, using a Brandel® cell Harvester (Gaithersburg, Md.). The radioactivity trapped on the filter disk by the ligand-receptor complex is assessed by liquid scintillation counting in a Packard LS Counter, with an efficiency of 65% for tritium. The data are analyzed for IC50 values by the LUNDON-2 program for competition (LUNDON SOFTWARE, Ohio).

[2] = target: T2, Rat Hepatic V1 Receptors (Rattus norvegicus, UniProt P30560); assay: Binding Assay to Rat Hepatic V1 Receptors; conditions: for pIC50: rat liver membranes, read-out: V1 IC50
T2 construct: Rat liver plasma membranes expressing the vasopressin V1 receptor subtypes; from tissue; host or cells: rat liver plasma membranes
T2 sequence (P30560 whole entry): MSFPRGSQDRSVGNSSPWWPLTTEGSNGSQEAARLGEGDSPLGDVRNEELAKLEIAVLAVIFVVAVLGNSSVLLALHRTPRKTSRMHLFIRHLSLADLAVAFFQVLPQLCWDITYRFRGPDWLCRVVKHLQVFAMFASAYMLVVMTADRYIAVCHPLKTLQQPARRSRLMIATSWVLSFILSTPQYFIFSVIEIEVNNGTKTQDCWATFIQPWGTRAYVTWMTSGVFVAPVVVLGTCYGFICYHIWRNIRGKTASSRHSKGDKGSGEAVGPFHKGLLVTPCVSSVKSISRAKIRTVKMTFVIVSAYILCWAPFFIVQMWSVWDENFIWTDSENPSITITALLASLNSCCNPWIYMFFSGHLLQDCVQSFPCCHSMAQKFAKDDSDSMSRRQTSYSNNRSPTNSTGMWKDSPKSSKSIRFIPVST
Experimental: Binding Assay to Rat Hepatic V1 Receptors
Rat liver plasma membranes expressing the vasopressin V1 receptor subtypes are isolated by sucrose density gradient according to the method described by Lesko et al., (1973). These membranes are quickly suspended in 50.0 mM Tris.HCl buffer, pH 7.4, containing 0.2% bovine serum albumin (BSA) and 0.1 mM phenylmethylsulfonylfluoride (PMSF) and kept frozen at -70° C. until used in subsequent binding experiments. For binding experiments, the following is added to the wells of a ninety-six well format microtiter plate: 100 μl of 100.0 mM Tris.HCl buffer containing 10.0 mM MgCl2, 0.2% heat inactivated BSA and a mixture of protease inhibitors: leupeptin, 1.0 mg %; aprotinin, 1.0 mg %; 1,10-phenanthroiine,2.0 mg %; trypsin inhibitor, 10.0 mg % and 0.1 mM PMSF, 20.0 μl of [phenylalanyl-3,4,5, -^3 H] vasopressin (S.A. 45.1 Ci/mmole) at 0.8 nM, and the reaction initiated by the addition of 80 μl of tissue membranes containing 20 μg of tissue protein. The plates are kept undisturbed on the bench top at room temperature for 120 min. to reach equilibrium. Non-specific samples are assayed in the presence of 0.1 μM of the unlabeled antagonist phenylalanylvasopressin, added in 20.0 μl volume.
as §1, with “For” for “The plates are left undisturbed on the bench top for 120 min to reach equilibrium. Non-specific binding is assessed in the presence of 1.0 μM of unlabeled ligand, added in 20 μl volume. For”, “μl .” for “μl.”

[3] = test system: Vasopressin V1; assay: Vasopressin V1 Antagonist Activity in Conscious Rats (vasopressin vasopressor response); format: in vivo, rat; design: Average Change: unit not given here; conditions: for Max. % Inhibition / Time (of max. % inhibition): 30 mg/kg i.v.; for % Inhibition / Average Change: 10 mg/kg i.v., SHR
In short: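 Conscious rats are restrained supine, and under local 2% procaine a PE 10/20 cannula is passed through the ventral caudal tail artery into the lower abdominal aorta. The caudal vein is cannulated for intravenous dosing. Blood pressure is recorded with a Statham P23Db transducer, and vasopressin injections are repeated after compound dosing. Percent antagonism is calculated against the pre-drug vasopressor response taken as 100%.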

Q: O=C(Nc1ccc(C(=O)N2Cc3cccn3Cc3ccccc32)cc1)C1CCCO1 (centres unmarked) [Example 600, N-[4-(5H-Pyrrolo[2,1-c][1,4]benzodiazepin-10(11H)-ylcarbonyl)phenyl]tetrahydrofurane-2-carboxamide] was tested. Which pIC50 [1] did it give?
A: The pIC50 was 6.13.

Q: What about the pIC50 [2] of the same compound?
A: Its pIC50 is 6.38.

Q: What about the “Max. % Inhibition” value [3] of the same compound?
A: The value was 78%.

Q: And the “Time (of max. % inhibition)” value [3]?
A: The value was 60 min.

Q: Which results are given for O=C(Cc1ccccc1F)Nc1ccc(C(=O)N2Cc3cccn3Cc3ccccc32)cc1 [Example 357, N-[4-(5H-Pyrrolo[2,1-c][1,4]benzodiazepin-10(11)ylcarbonyl)phenyl]-2-fluorobenzeneacetamide]?
A: pIC50 [1]: 7.77; pIC50 [2]: 7.72; % Inhibition ([3]; VAS 0.01 i.u./kg, 30 min): 60%; Average Change ([3]; VAS 0.01 i.u./kg, 30 min): 16.5; % Inhibition ([3]; VAS 0.01 i.u./kg, 60 min): 89%; Average Change ([3]; VAS 0.01 i.u./kg, 60 min): 4.5; % Inhibition ([3]; VAS 0.01 i.u./kg, 90 min): 80%; Average Change ([3]; VAS 0.01 i.u./kg, 90 min): 8; % Inhibition ([3]; VAS 0.01 i.u./kg, 120 min): 80%; Average Change ([3]; VAS 0.01 i.u./kg, 120 min): 8; % Inhibition ([3]; VAS 0.01 i.u./kg, 180 min): 77%; Average Change ([3]; VAS 0.01 i.u./kg, 180 min): 9.5; % Inhibition ([3]; VAS 0.01 i.u./kg, 240 min): 66%; Average Change ([3]; VAS 0.01 i.u./kg, 240 min): 14; % Inhibition ([3]; VAS 0.01 i.u./kg, 300 min): 61%; Average Change ([3]; VAS 0.01 i.u./kg, 300 min): 16; % Inhibition ([3]; VAS 0.02 i.u./kg, 30 min): 68%; Average Change ([3]; VAS 0.02 i.u./kg, 30 min): 16; % Inhibition ([3]; VAS 0.02 i.u./kg, 60 min): 79%; Average Change ([3]; VAS 0.02 i.u./kg, 60 min): 10.5; % Inhibition ([3]; VAS 0.02 i.u./kg, 90 min): 79%; Average Change ([3]; VAS 0.02 i.u./kg, 90 min): 10.5; % Inhibition ([3]; VAS 0.02 i.u./kg, 120 min): 88%; Average Change ([3]; VAS 0.02 i.u./kg, 120 min): 6; % Inhibition ([3]; VAS 0.02 i.u./kg, 180 min): 78%; Average Change ([3]; VAS 0.02 i.u./kg, 180 min): 11; % Inhibition ([3]; VAS 0.02 i.u./kg, 240 min): 71%; Average Change ([3]; VAS 0.02 i.u./kg, 240 min): 14.5; % Inhibition ([3]; VAS 0.02 i.u./kg, 300 min): 68%; Average Change ([3]; VAS 0.02 i.u./kg, 300 min): 16

Q: O=C(c1ccc(NS(=O)(=O)c2ccccc2Cl)cc1)N1Cc2cccn2Cc2ccccc21 [Example 488, 10-[4-[[(2-Chlorophenyl)sulfonyl]amino]benzoyl]-10,11-dihydro-5H-pyrrolo[2,1-c][1,4]benzodiazepine] was tested. Which inhibition at 10 µM ([1]; 10 μM, rat) did it give?
A: The inhibition at 10 µM was 87%.

Q: And the inhibition at 10 µM ([2]; 2 h, 10 μM, rat)?
A: Its inhibition at 10 µM is 96%.

Q: And the “Max. % Inhibition” value [3]?
A: Its value is 43%.

Q: What about the “Time (of max. % inhibition)” value [3] of the same compound?
A: Its value is 60 min.
